# In the supplement of paper PMC10331698:
# ± gives the standard deviation of the averaged measurements.
# Columns and labels:
# Experiment in all cases: level (log10 ratio to DMSO vehicle control); higher = higher biomarker level / cell amount than vehicle control
# Settings in all cases: in DMSO
# [1] = compound: FC(F)(F)C(F)(F)C(F)(F)C(F)(F)C(F)(F)C(F)(F)CC1CO1 [3-(Perfluorohexyl)-1,2-epoxypropane]
# Experimental: (§1)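 BioMAP Diversity Plus panel of 12 human primary cell co-culture systems (3C, 4H, LPS, SAg, BT, BF4T, BE3C, CASM3C, HDF3CGF, KF3CT, MyoF, Mphg). Compounds were added 1 h before stimulation and left for 24 h (MyoF 48 h; BT 72 h for soluble read-outs or 6 d for IgG). Biomarkers were read by ELISA, cytotoxicity by SRB, PBMC viability and proliferation by Alamar Blue. Each well value was divided by the mean of 8 DMSO control wells on the same plate and log10 transformed; duplicate blinded samples were tested at 4 concentrations.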
# Heptafluorobutyl iodide = compound: FC(F)(F)C(F)(F)C(F)(F)CI [Heptafluorobutyl iodide]
# Experimental: as §1
# [2] = compound: FC(F)(F)C(F)(F)CNCC(F)(F)C(F)(F)F [Bis(1H,1H-perfluoropropyl)amine]
# Experimental: as §1
# Octafluoroadipamide = compound: NC(=O)C(F)(F)C(F)(F)C(F)(F)C(F)(F)C(N)=O [Octafluoroadipamide]
# Experimental: as §1
# [3] = compound: NC(=O)C(F)(F)C(F)(F)C(F)(F)C(F)F
# Experimental: as §1
# [4] = compound: O=C(O)C(F)(F)C(F)(F)C(F)(F)C(F)(F)C(F)(F)C(F)(F)C(F)(F)C(F)(F)C(F)(F)C(F)F [11-H-Perfluoroundecanoic acid]
# Experimental: as §1
# [5] = compound: O=S(=O)(Cl)C(F)(F)C(F)(F)C(F)(F)C(F)(F)C(F)(F)C(F)(F)C(F)(F)C(F)(F)F [Perfluoro-1-octanesulfonyl chloride]
# Experimental: as §1
Test System,level (log10) ([1]; 6700 nM),level (log10) ([1]; 20000 nM),level (log10) ([1]; 60000 nM),level (log10) (Heptafluorobutyl iodide; 6700 nM),level (log10) (Heptafluorobutyl iodide; 20000 nM),level (log10) (Heptafluorobutyl iodide; 60000 nM),level (log10) ([2]; 6700 nM),level (log10) ([2]; 20000 nM),level (log10) ([2]; 60000 nM),level (log10) (Octafluoroadipamide; 6700 nM),level (log10) (Octafluoroadipamide; 20000 nM),level (log10) (Octafluoroadipamide; 60000 nM),level (log10) ([3]; 6700 nM),level (log10) ([3]; 20000 nM),level (log10) ([3]; 60000 nM),level (log10) ([4]; 6700 nM),level (log10) ([4]; 20000 nM),level (log10) ([5]; 6700 nM),level (log10) ([5]; 20000 nM),level (log10) ([5]; 60000 nM)
CASM3C:M-CSF,-0.0025 ± 0.012,-0.0125 ± 0.011,0.0325 ± 0.056,-0.001 ± 0.0042,-0.0165 ± 0.0021,0.0195 ± 0.037,0.006 ± 0.016,-0.005 ± 0.016,0.0115 ± 0.028,-0.0095 ± 0.0078,-0.01 ± 0.0085,-0.0065 ± 0.0092,-0.0485 ± 0.021,-0.0535 ± 0.046,0.019 ± 0.082,0.0055 ± 0.0035,-0.004 ± 0.0099,0.008 ± 0.014,0.0095 ± 0.018,0.0425 ± 0.005
CASM3C:PAI-I,0.0055 ± 0.005,0.002 ± 0.0085,0.017 ± 0.0042,-0.009 ± 0.0085,-0.0035 ± 0.005,-0.011 ± 0.0057,-0.0075 ± 0.0078,-0.009 ± 0.0042,0.005 ± 0.025,0.0005 ± 0.005,-0.0085 ± 0.012,0.0045 ± 0.0092,-0.005 ± 0.021,-0.003 ± 0.0085,-0.008 ± 0.0099,0.001 ± 0.0057,0.006 ± 0.0028,-0.003 ± 0.0028,-0.0095 ± 0.00071,0.0005 ± 0.011
CASM3C:SRB,0 ± 0.0085,-0.009 ± 0.0014,0.0025 ± 0.00071,-0.0085 ± 0.0064,0.002 ± 0.0042,0.0055 ± 0.0078,0.0065 ± 0.005,-0.001 ± 0.0028,0.008,0.0075 ± 0.013,0.002 ± 0.013,-0.005 ± 0.0042,0.0025 ± 0.00071,-0.0115 ± 0.005,-0.0085 ± 0.016,0.0025 ± 0.0078,0.008 ± 0.0028,0.0075 ± 0.00071,0.0045 ± 0.0078,0.014 ± 0.0042
CASM3C:Serum Amyloid A,-0.0115 ± 0.042,-0.012 ± 0.013,0.031 ± 0.023,-0.027 ± 0.0014,0.0075 ± 0.0021,0.0035 ± 0.012,0.0025 ± 0.019,-0.007 ± 0.0057,0.0065 ± 0.032,0.012 ± 0.014,0.0085 ± 0.0092,0.0185 ± 0.028,-0.054 ± 0.071,-0.0535 ± 0.026,-0.003 ± 0.024,0.0155 ± 0.00071,0.0205 ± 0.036,-0.008 ± 0.011,-0.0165 ± 0.005,0.016 ± 0.025
HDF3CGF:CCL2/MCP-1,-0.0165 ± 0.0021,-0.0045 ± 0.019,0.0055 ± 0.03,-0.01 ± 0.0057,-0.013 ± 0.0057,-0.0025 ± 0.025,-0.032 ± 0.023,-0.021 ± 0.011,0.014 ± 0.031,0.003,-0.019 ± 0.028,-0.0115 ± 0.005,-0.017 ± 0.054,-0.004 ± 0.04,0.0095 ± 0.028,0.0125 ± 0.0064,-0.065 ± 0.014,-0.026 ± 0.038,-0.0505 ± 0.021,-0.0235 ± 0.028
HDF3CGF:CD54/ICAM-1,-0.01 ± 0.018,-0.0095 ± 0.0092,-0.021 ± 0.034,-0.004 ± 0.0028,0.0005 ± 0.005,0.002 ± 0.0028,0.026 ± 0.018,0.033 ± 0.0085,0.0405 ± 0.018,0.011 ± 0.027,0.043 ± 0.0099,0.055 ± 0.073,-0.0045 ± 0.0064,0.0045 ± 0.0035,0.001 ± 0.0071,-0.058 ± 0.0085,-0.0635 ± 0.0035,0.039 ± 0.023,0.034 ± 0.051,0.0005 ± 0.03
HDF3CGF:CXCL8/IL-8,-0.0175 ± 0.0035,0.005 ± 0.0028,0.0145 ± 0.0064,-0.003 ± 0.0057,0.0005 ± 0.00071,0.0125 ± 0.0092,-0.003,-0.011 ± 0.0042,0.007 ± 0.016,0.006 ± 0.017,0.0045 ± 0.0092,0.007 ± 0.0028,-0.0085 ± 0.0035,0.0015 ± 0.0078,0.0045 ± 0.018,-0.009 ± 0.0071,-0.003 ± 0.016,-0.008 ± 0.0014,0.0065 ± 0.0092,0.0265 ± 0.012
HDF3CGF:CXCL10/IP-10,0.005 ± 0.031,0.012 ± 0.034,-0.0095 ± 0.037,0.0035 ± 0.012,-0.007 ± 0.011,-0.017 ± 0.014,0.011 ± 0.011,-0.001 ± 0.0042,0.0265 ± 0.025,0.011 ± 0.0028,-0.0045 ± 0.016,0.031 ± 0.03,-0.001 ± 0.0014,-0.0065 ± 0.0021,0.002 ± 0.011,-0.117 ± 0.011,-0.331 ± 0.0071,-0.0115 ± 0.0021,-0.046 ± 0.021,-0.0365 ± 0.018
